In patent publication US4362664A, “Vinblastine oxazolidinedione disulfides and related compounds” (priority 1980, dated 1982):

Tests used:
[1] = system: P388; assay: transplanted tumor in mice: P388; format: in vivo; settings: every fourth day (three doses)
Description: (§1) The bases of this invention and their salts preparable by the processes disclosed herein are active also in vivo against some but not all transplanted tumors in mice.
(§2) The following table--Table 2--gives the results of this experiment in which mice bearing the transplanted tumor were treated with a compound of this invention. In the table, column 1 gives the name of the compound; column 2, the name of the tumor; column 3, the dosage given; and column 4, the percent inhibition of tumor growth (I) or prolongation of life (PL). The following dosage regimen was employed: every fourth day (three doses) starting on the first day after inoculation.

[2] = system: Chinese hamster ovary cells; assay: standard mitotic inhibition test employing Chinese hamster ovary cells; format: cell-based; settings: dose 20-2 mcg/ml for accumulation in mitosis; CHO cells
Excerpt: As previously stated, the compounds of this invention are antimitotics, and can adversely affect the growth of malignant cells. This activity is manifested in a standard mitotic inhibition test employing Chinese hamster ovary cells.
In the Table, column 1 gives the name of the compound, column 2 gives the dose in mcg/ml for accumulation in mitosis and column 3, the percent mitotic accumulation as a range.

[3] = system: P388/V; assay: transplanted tumor in mice: P388/V; format: in vivo; settings: every fourth day (three doses)
Description: as §1, §2

CC[C@]1(O)C[C@H]2CN(CCc3c([nH]c4ccccc34)[C@@](C(=O)OC)(c3cc4c(cc3OC)N(C)[C@H]3[C@]5(OC(=O)N(CCS)C5=O)[C@H](O)[C@]5(CC)C=CCN6CC[C@]43[C@@H]65)C2)C1 [4-desacetyl vinblastine 3"-(β-thioethyl)-3-spiro-5"-oxazolidine-2",4"-dione]
Percent Prolongation of life (PL) ([1]; P388, 1.0 mg/kg): 52% | Percent Prolongation of life (PL) ([1]; P388, 1.2 mg/kg): 65% | Percent Prolongation of life (PL) ([1]; P388, 1.4 mg/kg): 77%

CC[C@]1(O)C[C@H]2CN(CCc3c([nH]c4ccccc34)[C@@](C(=O)OC)(c3cc4c(cc3OC)N(C)[C@H]3[C@]5(OC(=O)N(CCSSCCNC(=O)OC)C5=O)[C@H](OC(C)=O)[C@]5(CC)C=CCN6CC[C@]43[C@@H]65)C2)C1 [Example 1, Vinblastine 3"-(β-[β-(methoxycarbonylamino)ethyldithio]ethyl)-3-spiro-5"-oxazolidine-2",4"-dione]
percent mitotic accumulation as a range [2]: 7-10% | Percent Prolongation of life (PL) ([3]; 1.5 mg/kg): 30% | Percent Prolongation of life (PL) ([3]; 2.0 mg/kg, * = below 30, not statistically significant): 25%

CC[C@]1(O)C[C@H]2CN(CCc3c([nH]c4ccccc34)[C@@](C(=O)OC)(c3cc4c(cc3OC)N(C)[C@H]3[C@]5(OC(=O)N(CCS)C5=O)[C@H](OC(C)=O)[C@]5(CC)C=CCN6CC[C@]43[C@@H]65)C2)C1 [Example 2, Vinblastine 3"-(β-thioethyl)-3-spiro-5"-oxazolidine-2",4"-dione]
percent mitotic accumulation as a range [2]: 10-15%
